A word on the Papp B→A: it is the apparent permeability from the basolateral to the apical side of a cell layer. What is called Papp A→B is how fast a substance crosses the layer from the apical side. Lower therefore signals slow passage.

Experimental findings from patent US11083699B2, “Trans-4-hydroxycyclohexyl phenyl amide mitofusin activators and methods of use thereof” (MITOCHONDRIA EMOTION, INC., priority 2019, dated 2021) are described below.

Like-named read-outs stand apart in the source and are kept apart here.

One series has as its target T1, MAO-A (Homo sapiens, UniProt P21397).
T1 sequence (P21397 1-527): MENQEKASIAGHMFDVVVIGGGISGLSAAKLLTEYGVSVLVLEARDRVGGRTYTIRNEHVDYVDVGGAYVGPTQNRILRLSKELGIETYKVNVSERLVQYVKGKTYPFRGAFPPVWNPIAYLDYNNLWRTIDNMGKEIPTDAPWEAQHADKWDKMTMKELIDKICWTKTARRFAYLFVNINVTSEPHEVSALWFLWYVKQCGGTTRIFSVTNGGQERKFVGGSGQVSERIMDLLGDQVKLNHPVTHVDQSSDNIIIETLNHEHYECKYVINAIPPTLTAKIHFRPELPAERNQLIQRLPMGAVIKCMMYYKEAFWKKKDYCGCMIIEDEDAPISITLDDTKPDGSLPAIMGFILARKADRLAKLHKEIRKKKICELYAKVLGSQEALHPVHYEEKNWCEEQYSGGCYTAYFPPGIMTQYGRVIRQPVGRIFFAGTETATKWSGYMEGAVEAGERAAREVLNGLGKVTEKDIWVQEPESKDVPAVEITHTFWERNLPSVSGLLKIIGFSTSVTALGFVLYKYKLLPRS
The experiment in a line: Receptor/kinase panel: MAO-A. The series is classed as biochemical. The following applies: off-target DAT/MAO-A at 10 μM vs on-target potency.

Series [1] in a line: Mouse PK, plasma and brain levels after single IV dose. The format is in vivo. The following applies: single 10 mg/kg IV.
Series [2] is described as follows: Stability in mouse liver microsomes. The format is in vitro ADME. A general note: Liver microsomes are vesicles of endoplasmic reticulum, rich in cytochrome P450 enzymes.
A short description of series [3]: Stability in human liver microsomes. The series is classed as in vitro ADME.
Series [4] in a line: Parallel artificial membrane permeability assay (PAMPA). The series is classed as in vitro ADME.
For a further series, the target named is P-gp (Homo sapiens, UniProt P08183). Description: P-gp study, bidirectional permeability in NIH MDR1 cells. The series is classed as in vitro ADME.
Setting [5] is: GF120918 −, read-out: Mean Recovery % A to B.

Chain of P-gp (P08183 whole entry): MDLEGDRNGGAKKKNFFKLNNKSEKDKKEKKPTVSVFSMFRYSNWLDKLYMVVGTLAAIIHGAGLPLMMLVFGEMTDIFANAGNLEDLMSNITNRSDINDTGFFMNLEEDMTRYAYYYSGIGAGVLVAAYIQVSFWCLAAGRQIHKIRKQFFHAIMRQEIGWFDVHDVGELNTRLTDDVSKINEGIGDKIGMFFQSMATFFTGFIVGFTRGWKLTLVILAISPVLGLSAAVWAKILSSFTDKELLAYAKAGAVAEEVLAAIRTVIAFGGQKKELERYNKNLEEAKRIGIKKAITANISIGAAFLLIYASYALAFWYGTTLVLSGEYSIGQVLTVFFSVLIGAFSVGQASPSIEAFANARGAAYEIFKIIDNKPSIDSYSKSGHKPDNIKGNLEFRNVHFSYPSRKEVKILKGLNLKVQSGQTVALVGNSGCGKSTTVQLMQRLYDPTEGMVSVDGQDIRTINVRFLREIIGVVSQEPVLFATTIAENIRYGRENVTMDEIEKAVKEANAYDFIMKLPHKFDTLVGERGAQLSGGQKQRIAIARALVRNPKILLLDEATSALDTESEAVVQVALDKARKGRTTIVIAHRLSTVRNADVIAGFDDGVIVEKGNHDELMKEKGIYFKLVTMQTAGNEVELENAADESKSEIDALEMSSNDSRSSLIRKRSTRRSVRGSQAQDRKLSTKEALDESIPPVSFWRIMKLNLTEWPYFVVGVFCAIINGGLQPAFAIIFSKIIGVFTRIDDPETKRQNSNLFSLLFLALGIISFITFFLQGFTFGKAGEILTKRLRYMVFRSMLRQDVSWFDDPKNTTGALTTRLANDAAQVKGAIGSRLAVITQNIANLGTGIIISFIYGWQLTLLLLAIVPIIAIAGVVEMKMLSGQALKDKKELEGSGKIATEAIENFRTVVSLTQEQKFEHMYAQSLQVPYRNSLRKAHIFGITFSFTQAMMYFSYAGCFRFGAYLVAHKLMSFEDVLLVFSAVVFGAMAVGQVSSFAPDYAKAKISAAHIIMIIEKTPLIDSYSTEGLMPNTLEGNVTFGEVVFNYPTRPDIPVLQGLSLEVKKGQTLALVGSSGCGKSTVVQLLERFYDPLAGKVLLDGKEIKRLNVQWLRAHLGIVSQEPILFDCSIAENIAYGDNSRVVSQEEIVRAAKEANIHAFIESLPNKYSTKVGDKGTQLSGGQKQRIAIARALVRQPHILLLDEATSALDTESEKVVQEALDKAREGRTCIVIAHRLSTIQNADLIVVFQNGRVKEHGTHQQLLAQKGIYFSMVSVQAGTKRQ

On to `O=C(CCCCCc1ccccc1)N[C@H]1CC[C@H](O)CC1` [Compound 15B, N-(trans-4-Hydroxycyclohexyl)-6-phenylhexanamide], for which, at MAO-A, the “safety window compared to on-target efficacy” value is listed as 1,000 fold. Further, in series [1], the “Vdss (volume of distribution at steady state)” value came out at 0.35 L/kg and the “time therapeutic brain levels (>30 ng/g) were maintained” value is “more than 2 hours”.
Regarding `O=C(CCCCOc1ccccc1)N[C@H]1CC[C@H](O)CC1` [Compound 21], the “t1/2 MLM” value in series [2] is >2.42 h. Further, the “t1/2 HLM” value in series [3] was >2.42 h.
On to `O=C(CCCOCc1ccccc1)N[C@H]1CC[C@H](O)CC1` [Compound 22], for which, in series [2], the “t1/2 MLM” value was >2.42 h. Further, in series [3], the “t1/2 HLM” value was >2.42 h.
Take `O=C(CCOCCc1ccccc1)N[C@H]1CC[C@H](O)CC1` [Compound 23]: the “t1/2 MLM” value in series [2] was >2.42 h. Further, in series [3], the “t1/2 HLM” value is >2.42 h.
In the case of `O=C(COCCCc1ccccc1)N[C@H]1CC[C@H](O)CC1` [Compound 24], in series [2], the “t1/2 MLM” value is >2.42 h. For the same compound, the “t1/2 HLM” value in series [3] is >2.42 h.
On to `O=C(N[C@H]1CC[C@H](O)CC1)OCCCCc1ccccc1` [Compound 25], for which the “t1/2 MLM” value in series [2] stood at 0.815 h. For the same compound, the “PAMPA compared to parent trans-N-(4-hydroxycyclohexyl)-6-phenylhexanamide” value in series [4] came out at 10 fold. In series [3], the “t1/2 HLM” value is 2.188 h.
On to `C[C@H]1O[C@@H](O[C@H]2[C@@H](O)C[C@H](O[C@H]3[C@@H](O)C[C@H](O[C@H]4CC[C@@]5(C)[C@H](CC[C@@H]6[C@@H]5C[C@@H](O)[C@]5(C)[C@@H](C7=CC(=O)OC7)CC[C@]65O)C4)O[C@@H]3C)O[C@@H]2C)C[C@H](O)[C@@H]1O` [Digoxin], for which the recovery at P-gp (setting [5]) worked out at 98.9%; at P-gp (GF120918 −, read-out: Mean Recovery % B to A) it was 103%; on P-gp (with GF120918 (concentration not stated), GF120918 +, read-out: Mean Recovery % B to A), 99.3%. Moreover, the Papp B→A at P-gp (MDCK-MDR1, with GF120918 (concentration not stated), GF120918 +) came out at 2.05 ×10⁻⁶ cm/s; at P-gp (MDCK-MDR1, GF120918 −), 13.4 ×10⁻⁶ cm/s.
For the compound `COCCc1ccc(OCC(O)CNC(C)C)cc1` (centres unmarked) [Metoprolol], the recovery at P-gp (setting [5]) stood at 105%. The same compound returned an apparent permeability from apical to basolateral (Papp A→B) on P-gp (MDCK-MDR1, GF120918 −) of 21.2 ×10⁻⁶ cm/s.
With `CC(C)(C)NCC(O)COc1cccc2c1CC(O)C(O)C2` (centres unmarked) [Nadolol], the recovery on P-gp (setting [5]) came to 97.9%. In addition, on P-gp (MDCK-MDR1, GF120918 −), the Papp A→B was determined as 0.26 ×10⁻⁶ cm/s.
